Usually EC50 stands for the concentration needed to bring the measured effect to its halfway point.

A value given as a limit tells only on which side of the number the result lay.

This note sets out measurements from patent US12435080B2, “sGC stimulators” (Tisento Therapeutics Inc., priority 2016, dated 2025).

In the test the target is T1, sGC (Rattus norvegicus, UniProt P20595).
T1 construct: Rat primary neurons were isolated from fetuses of 18-day pregnant Sprague-Dawley females; endogenous in cells; host or cells: Primary rat hippocampal neurons (E18 Sprague-Dawley fetuses)
T1 sequence (P20595 1-619): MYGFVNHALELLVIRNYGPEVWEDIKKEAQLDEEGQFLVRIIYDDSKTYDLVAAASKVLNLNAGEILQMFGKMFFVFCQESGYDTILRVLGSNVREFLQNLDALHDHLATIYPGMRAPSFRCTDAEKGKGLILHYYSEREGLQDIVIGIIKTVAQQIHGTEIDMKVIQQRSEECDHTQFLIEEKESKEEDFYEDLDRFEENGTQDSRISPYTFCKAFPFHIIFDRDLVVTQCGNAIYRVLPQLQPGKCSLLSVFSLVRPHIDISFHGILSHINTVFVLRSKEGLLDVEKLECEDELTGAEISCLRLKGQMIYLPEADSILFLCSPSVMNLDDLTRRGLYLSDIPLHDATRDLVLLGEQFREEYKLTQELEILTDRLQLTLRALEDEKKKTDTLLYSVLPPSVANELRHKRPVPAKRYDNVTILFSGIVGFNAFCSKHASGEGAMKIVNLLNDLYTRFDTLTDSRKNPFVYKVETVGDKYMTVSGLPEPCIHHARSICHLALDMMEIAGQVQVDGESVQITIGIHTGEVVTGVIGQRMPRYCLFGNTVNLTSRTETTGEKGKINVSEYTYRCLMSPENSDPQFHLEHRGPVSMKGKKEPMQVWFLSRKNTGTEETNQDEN
The test is described as follows: cGMP neuronal cell-based assay. The note with it: rat primary hippocampal neurons; 30 μM DETA-NO; cGMP by LC-MS/MS; normalized to 10 μM Compound Y; compounds in Table IA; read-out: sGC-neuron Abs EC50. As for the experimental part:
Rat primary neurons were isolated from fetuses of 18-day pregnant Sprague-Dawley females. The fetuses were collected in Hanks' balanced salt solution (HBSS) and brains were rapidly removed. The cerebral hippocampi were isolated and mechanically fragmented. Further tissue digestion was performed with 0.25% (wt/vol) trypsin solution in HBSS without Ca2+ and Mg2+ for 15 min at 37° C. After trypsination, cells were washed and resuspended in neurobasal medium supplemented with 0.5 mM L-glutamine, 12.5 uM glutamic acid, 2% B-27 and 100U/mL penicillin, and 100 μg/mL streptomycin. Cells were plated at a density of 4×10^4 cells/well in a poly-D-lysine coated 384-well flat clear-bottom plate (Corning Cat No 354662). Cells were incubated 6-7 days at 37° C. in a humidified chamber with 5% CO2. Media was removed and cells were washed 1× with HBSS containing Ca2+ and Mg2+, and replaced with 40 uL HBSS containing 0.5 mM IBMX, and incubated for 15 minutes at 37° C. 10 uL of a 5× stock of test compounds with diethylenetriamine NONOate (DETA-NO) was added. Final concentration of DETA-NO was 30 μM. Cells were incubated for 20 min at 37° C. Medium was removed, 50 uL of ice-cold 10% acetic acid was added, and incubated for 60 minutes at 4° C. Following centrifugation at 4° C. for 5 minutes at 1000×g to pellet cell debris, the supernatant was aspirated to a clean plate and the samples were analyzed for cGMP content. cGMP concentrations were determined from each sample using LC-MS/MS.
Data were normalized to a high control using the following equation: 100*(Sample−Low Control)/(High Control−Low Control), where the low control is the average of 15 samples treated with 1% DMSO, and the high control is the average of 15 samples treated with 10 μM of the known sGC stimulator Compound Y (depicted in Example 2). Data were fit using a 4-parameter fit (log(agonist) vs. response—variable slope) using GraphPad Prism Software v.5. n=2 for all compounds. The Absolute EC50 was interpolated from the curve fit and is defined as the concentration at which a given compound elicits 50% of the high control response after data normalization. Compounds failing to elicit a minimum response of 50% are reported as >30 μM. For compounds run in duplicate or n higher than 2, the result herein given is the geometric mean of the several results obtained.
Take `FC(F)(F)c1n[nH]c(-c2nn(CCC(F)(F)C(F)(F)F)c3ncccc23)n1` [Compound I-2, 1-(3,3,4,4,4-pentafluorobutyl)-3-(3-(trifluoromethyl)-1H-1,2,4-triazol-5-yl)-1H-pyrazolo[3,4-b]pyridine]: the concentration for a half-maximal effect (EC50) was at most 0.1 µM.
The figure for `FC(F)(F)c1n[nH]c(-c2nn(Cc3cncnc3)c3ncccc23)n1` [Compound I-4, 1-(Pyrimidin-5-ylmethyl)-3-(3-(trifluoromethyl)-1H-1,2,4-triazol-5-yl)-1H-pyrazolo[3,4-b]pyridine] is at most 0.1 µM; for `Fc1ccccc1Cc1nn(-c2nc(C(F)(F)F)n[nH]2)c2cccnc12` [Compound I-31, 3-(2-Fluorobenzyl)-1-(3-(trifluoromethyl)-1H-1,2,4-triazol-5-yl)-1H-pyrazolo[4,3-b]pyridine] it is at most 0.1 µM.
`N#Cc1n[nH]c(-c2nn(Cc3ccccc3F)c3ncccc23)n1` [Compound I-41]: the EC50 is at most 0.1 µM.
To `Fc1cccc(Cn2nc(-c3nc(C(F)(F)F)n[nH]3)c3cccnc32)c1F` [Compound I-48, 1-(2,3-Difluorobenzyl)-3-(3-(trifluoromethyl)-1H-1,2,4-triazol-5-yl)-1H-pyrazolo[3,4-b]pyridine] belongs at most 0.1 µM.
For the compound `FC(F)(F)c1n[nH]c(-c2nn(Cc3ccccc3)c3ncccc23)n1` [Compound I-49, 1-Benzyl-3-(3-(trifluoromethyl)-1H-1,2,4-triazol-5-yl)-1H-pyrazolo[3,4-b]pyridine], the half-maximal effective concentration (EC50) is at most 0.1 µM.
Consider `Cc1ncc(Cn2nc(-c3nc(C(F)(F)F)n[nH]3)c3ccccc32)cn1` [Compound I-62, 1-((2-methylpyrimidin-5-yl)methyl)-3-(3-(trifluoromethyl)-1H-1,2,4-triazol-5-yl)-1H-indazole], for which the half-maximal effective concentration (EC50) was at most 0.1 µM.
On to `OCc1n[nH]c(-c2nn(Cc3ccccc3F)c3ncccc23)n1` [Compound I-64, (5-(1-(2-fluorobenzyl)-1H-pyrazolo[3,4-b]pyridin-3-yl)-1H-1,2,4-triazol-3-yl)methanol], for which the EC50 is at most 0.1 µM.
For the compound `Fc1cccc(Cn2nc(-c3nc(Cl)n[nH]3)c3cccnc32)c1F` [Compound I-86, 3-(3-Chloro-1H-1,2,4-triazol-5-yl)-1-(2,3-difluorobenzyl)-1H-pyrazolo[3,4-b]pyridine], the EC50 is at most 0.1 µM.
Take `Fc1ccccc1Cn1nc(-c2nc(C3CC3(F)F)n[nH]2)c2cccnc21` (stereo not drawn) [Compound I-96, 3-(3-(2,2-Difluorocyclopropyl)-1H-1,2,4-triazol-5-yl)-1-(2-fluorobenzyl)-1H-pyrazolo[3,4-b]pyridine]: the EC50 was at most 0.1 µM.
On to `Fc1ccccc1Cc1nn(-c2nc(C(F)F)n[nH]2)c2cccnc12` [Compound I-101, 1-(3-(Difluoromethyl)-1H-1,2,4-triazol-5-yl)-3-(2-fluorobenzyl)-1H-pyrazolo[4,3-b]pyridine], for which the half-maximal effective concentration (EC50) was at most 0.1 µM.
On to `Fc1cccc(Cc2nn(-c3nc(C(F)(F)F)n[nH]3)c3cccnc23)c1F` [Compound I-105, 3-(2,3-Difluorobenzyl)-1-(3-(trifluoromethyl)-1H-1,2,4-triazol-5-yl)-1H-pyrazolo[4,3-b]pyridine], for which the EC50 was at most 0.1 µM.
